# Legend:
# Raw264.7 cells = assay: Anti-inflammatory effect by inhibition of NO production (lipopolysaccharide-stimulated); type: cell-based; conditions: positive control at 100 μM, lipopolysaccharide 500 ng/mL, 18 hours, vs control group
# Protocol: In order to examine the anti-inflammatory effect of the Glycyrrhiza sp. extract, 10 g of the Glycyrrhiza sp., which was not treated, steamed at 120° C., or roasted at 200° C. and steamed at 120° C., was extracted with 200 mL of 50% butylene glycol and filtered to prepare each extract.
# To culture Raw264.7 cells, a mixture of DMEM (Dulbecco's Modified Eagle's Medium) and FBS (Fetal Bovine Serum) was used as a basic medium, and Raw264.7 cells were dispensed in a 24-well plate at a density of 1×10^5 cells/mL to 2×10^5 cells/mL and cultured for 24 hours. After removing the medium and starving with a serum-free medium for 12 hours, each extract was treated at a concentration of 1% in the cell culture solution. 30 minutes later, lipopolysaccharide was added at a concentration of 500 ng/mL, followed by culturing for 18 hours. As a control group, 50% butylene glycol was used. L-NMMA, which is a positive control, was treated at 100 μM. After culturing, the supernatant was taken and transferred to a 96-well plate, and GRIESS reagent was added and reacted at room temperature for 15 minutes. Absorbance at 540 nm was measured using an ELISA reader. The total amount of NO, of which production was inhibited as compared to the control group, was determined as the NO production inhibition rate (%), and the experiment was conducted in triplicate, and then the average value was calculated (Table 6).
# MNT-1 melanoma cells = assay: Whitening effect by inhibition of melanin production; type: cell-based; conditions: Homo sapiens, positive control at 200 μg/mL (200 ppm), 72 hours, vs control group, read-out: Melanin production inhibition rate (%)
# Protocol: In order to examine the whitening effect of the Glycyrrhiza sp. extract, 10 g of the Glycyrrhiza sp., which was not treated, steamed at 120° C., or roasted at 200° C. and steamed at 120° C., was extracted with 200 mL of 50% butylene glycol and filtered to prepare each extract.
# To culture MNT-1 melanoma cells, a mixture of DMEM (Dulbecco's Modified Eagle's Medium) and FBS (Fetal Bovine Serum) was used as a basic medium, and MNT-1 melanoma cells were dispensed in a 6-well plate at a density of 1×10^5 cells/mL to 2×10^5 cells/mL and cultured for 24 hours. Each extract was treated at a concentration of 0.1% in the cell culture solution, and then cultured for 72 hours. As a control group, 50% butylene glycol was used. Arbutin, which is a positive control, was treated at 200 μg/mL (200 ppm). […] Melanin in the precipitate was dissolved by adding 100 μL of 0.5 N sodium hydroxide solution and incubating for 12 hours, and absorbance at 450 nm was measured using an ELISA reader to measure the total amount of melanin produced. The total amount of melanin, of which production was inhibited as compared to the control group, was determined as the melanin production inhibition rate (%), and the experiment was conducted in triplicate, and then the average value was calculated (Table 5).
SMILES,NO production inhibition rate (%) (Raw264.7 cells),inhibition at 200 µg/mL (MNT-1 melanoma cells) [%]
CNC(=N)NCCC[C@H](N)C(=O)O [L-NMMA],60.9,–
OC[C@H]1O[C@@H](Oc2ccc(O)cc2)[C@H](O)[C@@H](O)[C@@H]1O [Arbutin],–,19.7

# — patent publication US12496269B2, “Steamed Glycyrrhiza sp. extract with increased glycyrrhetinic acid contents and preparation method thereof” (LG Household & Health Care Ltd., priority 2021, dated 2025)
